# According to patent US9918989B2, “Combination therapies for malaria” (The Regents of the University of California, priority 2013, dated 2018):
# “Also recorded” adds a separate entry of the source.
# Key:
# Plasmodium falciparum [1] = assay: P. falciparum development (oocysts) in A. stephensi after inhibitor-supplemented bloodmeal; assay type: in vivo, Anopheles stephensi; conditions: 10 μM in bloodmeal
# Description: Midguts were dissected and oocysts were counted at 10 days following infection. Dots in FIG. 3A and FIG. 3C represent oocyst numbers in one midgut, while percentage positive midguts or percentage of midguts with at least one oocyst are represented as means in FIG. 3B and FIG. 3D. Mean oocysts per midgut (lines, numbers on graph) were analyzed by ANOVA (alpha=0.05) for overall significance and by Student-Neuman-Keuls for pairwise comparisons using Graphpad Prism version 4.0 (San Diego, Calif.). Prevalences of mosquito infection (indicated on graph) were analyzed by chi-square (alpha=0.05).
# [2] = tested on: Anopheles stephensi p38 MAPK; assay: MK2 phosphorylation in LPS-stimulated ASE cells, western blot; assay type: cell-based; conditions: ASE cells pre-incubated with 10 μM inhibitor, 2 h later 1 μg/ml LPS
# Plasmodium falciparum [3] = assay: P. falciparum growth in vitro, flow cytometry; assay type: cell-based; conditions: 1 μM or 10 μM (up to 10 μM), 48 h, relative to vehicle control
# anti-parasite genes = assay: Midgut expression of anti-parasite/immune genes, quantitative PCR; assay type: in vivo, Anopheles stephensi; conditions: BIRB 796 with killed lysate of P. falciparum; 6 h post-feeding
# A. freeborni = assay: Mosquito lifespan with inhibitor in water or bloodmeal; assay type: in vivo, Anopheles freeborni; conditions: 1 μM or 10 μM daily in water or once weekly via bloodmeal
# A. stephensi = assay: as above; assay type: in vivo, Anopheles stephensi; conditions: 1 μM or 10 μM daily in water or once weekly via bloodmeal
Compound,infection prevalence in A. stephensi (Plasmodium falciparum [1]; midguts with at least one oocyst at 10 days),P. falciparum oocysts/midgut (Plasmodium falciparum [1]; oocysts counted at 10 days),p-MK2 levels (phosphorylation of MK2) [2],P. falciparum growth in vitro (parasitemia) (Plasmodium falciparum [3]),midgut immune gene expression levels (anti-parasite genes),impact on lifespan (A. freeborni),impact on lifespan (A. stephensi)
"C[S+]([O-])c1ccc(-c2nc(-c3ccc(F)cc3)c(-c3ccncc3)[nH]2)cc1 (centres unmarked) [SB203580, 4-[4-(4-fluorophenyl)-2-(4-methylsulfinylphenyl)-1H-imidazol-5-yl]pyridine]",significantly reduced,significantly reduced,undetectable,Neither inhibitor significantly altered parasite growth; also recorded: no such effects,,,
"Cc1ccc(-n2nc(C(C)(C)C)cc2NC(=O)Nc2ccc(OCCN3CCOCC3)c3ccccc23)cc1 [BIRB 796, 1-[5-tert-butyl-2-(4-methylphenyl)pyrazol-3-yl]-3-[4-(2-morpholin-4-ylethoxy)naphthalen-1-yl]urea]",,,,Neither inhibitor significantly altered parasite growth,significantly different from controls,,
"Oc1c2ccccc2c2c3c(cccc13)N=N2 [SP600125, 1;9-Pyrazoloanthrone]",,,,,,no negative impact,no negative impact
